Active and inactive are the calls of the source.
Columns and labels:
[1] = biological target: T1, Calpain-2 catalytic subunit (Sus scrofa, UniProt P43367); experiment: m-calpain protease blockers, concentration series – biochemical, fluorogenic peptide substrate, dose response (AID 1420); assay type: functional
T1 sequence (P43367 whole entry): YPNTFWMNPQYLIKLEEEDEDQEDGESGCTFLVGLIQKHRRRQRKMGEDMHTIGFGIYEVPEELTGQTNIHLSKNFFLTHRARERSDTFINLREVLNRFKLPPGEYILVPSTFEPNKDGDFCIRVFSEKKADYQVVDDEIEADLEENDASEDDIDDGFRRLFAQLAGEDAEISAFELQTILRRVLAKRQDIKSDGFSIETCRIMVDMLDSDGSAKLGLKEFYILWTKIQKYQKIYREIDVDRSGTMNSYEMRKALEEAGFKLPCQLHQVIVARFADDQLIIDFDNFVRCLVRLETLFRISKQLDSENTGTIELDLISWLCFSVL

[2] = Luminescence Cell-Based Dose Response HTS to Identify Inhibitors of 5'UTR Stem-Loop Driven Prion Protein mRNA Translation in H4 Neuroglioblastoma Cells. [Related pubchem assays: 1827 (Project Summary), 1813 (Primary HTS)]; assay type: functional
[3] = luciferase reporter signal suppression in cells – H4 neuroglioma cells, luminescence, dose response (AID 1990); assay type: functional, cell-based
[4] = alpha-synuclein stem-loop luciferase translation blockers – H4 neuroglioma cells, luminescence, confirmation (AID 1988); assay type: functional, cell-based
[5] = microbe, parasite or virus in culture; assay type: functional; conditions: Mycobacterium tuberculosis
[6] = biological target: T2, Corticotropin-releasing factor receptor 2/Corticotropin-releasing factor-binding protein (Homo sapiens, UniProt P24387+Q13324); experiment: activators of CRF receptor 2 with binding protein – uHTS hits, confirmation (AID 602473); assay type: functional; conditions: read-out: EC50_Mean
T2 sequence (Q13324 whole entry): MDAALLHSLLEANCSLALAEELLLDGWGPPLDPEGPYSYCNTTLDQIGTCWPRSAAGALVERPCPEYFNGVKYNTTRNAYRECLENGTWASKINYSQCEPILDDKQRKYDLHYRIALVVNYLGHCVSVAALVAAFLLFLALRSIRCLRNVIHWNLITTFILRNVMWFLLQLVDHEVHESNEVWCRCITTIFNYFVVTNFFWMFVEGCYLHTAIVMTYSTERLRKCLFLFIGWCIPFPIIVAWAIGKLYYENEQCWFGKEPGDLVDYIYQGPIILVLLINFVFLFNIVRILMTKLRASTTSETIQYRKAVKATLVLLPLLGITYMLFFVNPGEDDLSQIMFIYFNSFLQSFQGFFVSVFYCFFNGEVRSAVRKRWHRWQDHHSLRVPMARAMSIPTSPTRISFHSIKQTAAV
T2 sequence (P24387 whole entry): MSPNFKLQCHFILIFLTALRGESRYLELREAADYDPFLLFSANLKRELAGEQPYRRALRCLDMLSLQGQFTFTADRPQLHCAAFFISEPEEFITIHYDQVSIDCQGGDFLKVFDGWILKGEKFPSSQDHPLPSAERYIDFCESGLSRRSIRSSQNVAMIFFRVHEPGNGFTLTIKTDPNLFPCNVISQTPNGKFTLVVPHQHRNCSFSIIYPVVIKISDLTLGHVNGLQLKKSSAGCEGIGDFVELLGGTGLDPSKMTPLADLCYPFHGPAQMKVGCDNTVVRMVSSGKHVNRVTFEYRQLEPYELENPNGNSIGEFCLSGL

[7] = biological target: T2, Corticotropin-releasing factor receptor 2/Corticotropin-releasing factor-binding protein; experiment: Dose Response confirmation of uHTS hits for small molecule antagonists of the CRF-binding protein and CRF-R2 receptor complex.; assay type: functional; conditions: read-out: IC50_Mean
Cytochrome P450 3A4 = Cytochrome P450 3A4 (Homo sapiens, UniProt P08684);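 further: CYP3A4 tested as one member of a cytochrome P450 panel screen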
Cytochrome P450 2C19 = Cytochrome P450 2C19 (Homo sapiens, UniProt P33261); experiment: Cytochrome panel assay with activity outcomes. Panel member name: p450-cyp2c19 Compounds with AC50 equal or less than 10 uM are considered active; assay type: functional; conditions: read-out: AC50
Cytochrome P450 2D6 = Cytochrome P450 2D6 (Homo sapiens, UniProt P10635);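 further: CYP2D6 member of a cytochrome P450 panel assay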
Cytochrome P450 2C9 = Cytochrome P450 2C9 (Homo sapiens, UniProt P11712)
[8] = system: Streptococcus sp. 'group A'; experiment: Streptococcus pyogenes SK(-)GAS viability under kanamycin – luminescence, BacTiterGlo, confirmation, counter-screen for streptokinase expression inhibitor project, dose response (AID 1900); assay type: functional, organism-based
Streptococcus = experiment: GAS UMAA2166 growth inhibition – luminescence, BacTiterGlo, counter-screen for streptokinase expression inhibitor project, dose response (AID 1915); assay type: functional, organism-based;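 further: potency for reduction of bacterial viability or growth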
INS1 = experiment: INS-1E survival protection against cytokine death – cell-based, luminescence, retest, dose response (AID 449756); assay type: functional; conditions: Rattus norvegicus;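 further: cell death triggered by IL-1 beta plus TNF-alpha plus IFN-gamma mixture; protective hits raise ATP signal compared with cytokine alone wells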

Cytochrome P450 3A4, sequence (P08684 whole entry): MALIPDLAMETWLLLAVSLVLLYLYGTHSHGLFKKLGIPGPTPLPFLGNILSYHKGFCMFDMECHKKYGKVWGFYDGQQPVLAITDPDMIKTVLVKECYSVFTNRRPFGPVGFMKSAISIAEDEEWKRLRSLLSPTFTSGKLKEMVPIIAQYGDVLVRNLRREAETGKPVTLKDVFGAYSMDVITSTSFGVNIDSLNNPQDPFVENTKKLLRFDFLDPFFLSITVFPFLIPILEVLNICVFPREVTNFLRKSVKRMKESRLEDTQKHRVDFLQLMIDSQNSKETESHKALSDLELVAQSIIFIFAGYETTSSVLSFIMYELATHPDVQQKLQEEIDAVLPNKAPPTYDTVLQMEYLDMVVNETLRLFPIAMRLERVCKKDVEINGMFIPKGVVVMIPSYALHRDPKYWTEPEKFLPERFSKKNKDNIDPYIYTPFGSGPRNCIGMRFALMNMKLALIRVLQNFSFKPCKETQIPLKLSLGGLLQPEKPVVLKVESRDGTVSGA
Cytochrome P450 2D6, sequence (P10635 whole entry): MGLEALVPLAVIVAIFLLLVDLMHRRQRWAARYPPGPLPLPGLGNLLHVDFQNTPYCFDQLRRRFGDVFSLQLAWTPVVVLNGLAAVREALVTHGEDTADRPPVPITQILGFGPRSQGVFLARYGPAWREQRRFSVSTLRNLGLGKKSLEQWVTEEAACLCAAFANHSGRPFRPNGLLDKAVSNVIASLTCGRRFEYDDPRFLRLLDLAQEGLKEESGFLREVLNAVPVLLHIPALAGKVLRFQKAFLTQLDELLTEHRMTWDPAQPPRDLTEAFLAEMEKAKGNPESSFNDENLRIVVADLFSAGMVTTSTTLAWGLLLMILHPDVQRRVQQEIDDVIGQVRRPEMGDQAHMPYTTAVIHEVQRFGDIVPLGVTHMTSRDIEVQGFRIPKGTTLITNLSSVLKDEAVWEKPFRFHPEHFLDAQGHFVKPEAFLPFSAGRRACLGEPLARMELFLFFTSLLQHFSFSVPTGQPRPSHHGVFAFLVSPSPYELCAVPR
Cytochrome P450 2C19, sequence (P33261 whole entry): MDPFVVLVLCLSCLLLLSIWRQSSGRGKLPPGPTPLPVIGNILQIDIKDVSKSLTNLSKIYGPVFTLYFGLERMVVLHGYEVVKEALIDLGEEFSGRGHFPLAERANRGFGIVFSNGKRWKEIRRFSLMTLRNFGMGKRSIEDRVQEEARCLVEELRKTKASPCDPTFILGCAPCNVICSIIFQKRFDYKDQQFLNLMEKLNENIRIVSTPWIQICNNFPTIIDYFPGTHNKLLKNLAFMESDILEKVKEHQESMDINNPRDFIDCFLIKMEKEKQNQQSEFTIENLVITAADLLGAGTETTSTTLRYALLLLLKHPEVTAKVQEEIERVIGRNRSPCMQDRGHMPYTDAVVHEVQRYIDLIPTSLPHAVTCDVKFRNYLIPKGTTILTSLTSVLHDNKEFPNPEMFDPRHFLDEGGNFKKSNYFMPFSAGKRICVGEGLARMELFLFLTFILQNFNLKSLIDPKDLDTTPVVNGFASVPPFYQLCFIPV
Cytochrome P450 2C9, sequence (P11712 whole entry): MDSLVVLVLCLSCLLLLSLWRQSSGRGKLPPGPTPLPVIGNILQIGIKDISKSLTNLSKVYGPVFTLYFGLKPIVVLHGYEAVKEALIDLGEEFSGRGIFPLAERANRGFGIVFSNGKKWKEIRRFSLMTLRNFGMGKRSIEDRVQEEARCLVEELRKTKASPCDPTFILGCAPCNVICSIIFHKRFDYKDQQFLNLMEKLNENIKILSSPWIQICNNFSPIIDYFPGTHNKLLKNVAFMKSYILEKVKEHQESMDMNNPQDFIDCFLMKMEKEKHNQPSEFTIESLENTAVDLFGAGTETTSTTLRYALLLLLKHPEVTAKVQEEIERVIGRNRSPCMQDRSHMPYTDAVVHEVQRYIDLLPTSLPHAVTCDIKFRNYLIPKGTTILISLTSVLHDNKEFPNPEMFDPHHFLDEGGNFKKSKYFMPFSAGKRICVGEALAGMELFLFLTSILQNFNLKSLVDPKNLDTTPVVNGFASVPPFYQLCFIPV

In the case of `Cc1nc(SCC(=O)NC(C)c2ccccc2)c2oc3ccccc3c2n1` (configuration not stated), the IC50 [1] is reported as < 0.4 µM (not active).

In the case of `CC(C)c1ccc(/C=C/C2=NNC(=O)CC2)cc1`, the EC50 [2] is reported as 11.5 µM (active), the EC50 [3] is reported as < 0.1 µM (active) and the EC50 [4] is reported as 0.13 µM (active). The IC50 [1] was 14.3 µM (not active).

With `c1ccc(CN2CCC3(CCCc4ccccc43)CC2)cc1` the CC50 [5] was > 40 µM (active).

With `O=C(COC(=O)c1ccncc1)Nc1cc(S(=O)(=O)N2CCOCC2)ccc1Cl` the EC50 [6] was > 53 µM (inactive) and the IC50 [7] was > 47.1 µM (inactive).

With `Cc1ccc(-c2nc(-c3nccc4ccccc34)oc2-c2ccccc2)cc1` the AC50 (Cytochrome P450 3A4) was 5.01 µM (inconclusive) and the AC50 (Cytochrome P450 2C19) was 5.01 µM (inconclusive).

For `O=C(c1ccc(Oc2ccccc2)cc1)c1nc2c(n1O)CCCC2`, the IC50 [1] was 12.9 µM (not active).

For `COc1ccc2nc(NN=C3C(=O)CC(C)(C)CC3=O)sc2c1`, the CC50 [5] was 26.2 µM (active).

In the case of `CCNC(=O)NCc1c(C)c(C)n(Cc2ccccc2)c1-n1cccc1`, the IC50 [1] is reported as 8.86 µM (not active).

In the case of `CCN(c1cccc(C)c1)c1nc2ccsc2c(=O)s1`, the EC50 [6] is reported as > 53 µM (inactive) and the IC50 [7] is reported as > 47.1 µM (inactive).

In the case of `O=C(N/N=C\c1ccc(Sc2ccccn2)o1)c1cccc(Br)c1`, the AC50 (Cytochrome P450 2D6) is reported as 28.2 µM (inconclusive) and the AC50 (Cytochrome P450 3A4) is reported as 22.4 µM (inconclusive).

In the case of `CCCCCC(=O)NNC(=O)c1ccc(F)cc1`, the EC50 [6] is reported as > 53 µM (inactive) and the IC50 [7] is reported as > 47.1 µM (inactive).

For `c1cc2c(cc1C1CCCCC1)c1c3n2CCN[C@H]3CCC1`, the AC50 (Cytochrome P450 2C9) was 20 µM (inconclusive), the AC50 (Cytochrome P450 2D6) was 12.6 µM (inconclusive) and the AC50 (Cytochrome P450 3A4) was 31.6 µM (inconclusive).

For `O=C(CNc1ccccc1)N/N=C/c1c(O)ccc2ccccc12`, the EC50 [8] was 1.02 µM (active), the EC50 (Streptococcus) was 0.939 µM (active) and the AC50 (INS1) was 3.29 µM (active).

With `COc1ccc(N(C(=O)c2ccco2)C(C(=O)NC2CCCC2)c2ccc(N3CCOCC3)cc2)c(OC)c1` (configuration not stated) the EC50 [6] was > 53 µM (inactive) and the IC50 [7] was > 47.1 µM (inactive).

With `CCC1=C(OC(=O)N(CC)CC)N2C(=O)O/C(=N\CCc3c[nH]c4ccccc34)[C@]2(Cc2ccccc2)[C@H]2C1=CC[C@H]1C(=O)NC(=O)[C@H]12` the CC50 [5] was > 40 µM (active).

For `O=C(/C=C/c1ccccc1[N+](=O)[O-])N1CCOCC1`, the EC50 [6] was > 53 µM (inactive) and the IC50 [7] was > 47.1 µM (inactive).

In the case of `Cc1ccc(-c2csc(NC(=S)NC(=O)c3ccco3)n2)cc1`, the IC50 [1] is reported as 4.46 µM (not active).

With `O=C1NN=C(c2ccc(Cl)cc2)CC1c1cccc(Br)c1` (configuration not stated) the IC50 [1] was 12.5 µM (not active).

From ChEMBL document CHEMBL1201862, “PubChem BioAssay data set” (2004)
